Experimental findings from PMC5317395, “Structure and inhibitor specificity of the PCTAIRE-family kinase CDK16” (Biochemical Journal, 2017) are described below.

In general, IC50 refers to the concentration needed to halve the response being measured.

For one assay, the target named is T1, CDK16 (Homo sapiens, UniProt Q00536, S319D).
T1 construct: kinase domain, CDK16 163–478, C-terminal His tag
T1 sequence (Q00536 163-478 S319D): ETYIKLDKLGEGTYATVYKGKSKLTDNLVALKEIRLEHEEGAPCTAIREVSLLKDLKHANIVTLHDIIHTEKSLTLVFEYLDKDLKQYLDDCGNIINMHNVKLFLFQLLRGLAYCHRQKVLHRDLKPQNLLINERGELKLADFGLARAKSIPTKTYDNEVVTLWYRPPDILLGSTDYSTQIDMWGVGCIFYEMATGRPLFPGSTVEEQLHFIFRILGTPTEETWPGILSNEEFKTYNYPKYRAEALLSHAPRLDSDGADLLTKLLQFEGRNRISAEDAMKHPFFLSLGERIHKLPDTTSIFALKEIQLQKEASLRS
Put plainly: biochemical. Also on record: Differential scanning fluorimetry (SYPRO Orange), 2 uM CDK16, Tm shift versus 2.5% DMSO control. Conditions: 12.5 µM; binder; Tm shift (°C). As for the experimental part:
Thermal melting experiments were performed using a Real-Time PCR machine Mx3005p (Stratagene) as described previously. Briefly, 2 μM CDK16 was screened against a collection of kinase inhibitors in a 96-well plate format. […] Data were analysed with the MxPro software. […] To identify protein constructs suitable for structural studies, human CDK16 was recombinantly expressed in E. coli with a variety of N- and C-terminal truncations. […] To identify potential inhibitors of CDK16, we screened the recombinant protein kinase domain against many inhibitor libraries using differential scanning fluorimetry (DSF). Ligands in this assay increase a protein's melting temperature (Tm shift, ΔTm) by an amount proportional to their binding affinity. […] Rebastinib is a multitargeted type II kinase inhibitor that was developed to inhibit BCR-ABL as well as the drug-resistant gatekeeper mutant ABL^T315I (Figure 1). It has entered phase I clinical trials for chronic myeloid leukaemia.
For the compound `CN1CCC(C(=O)Nc2n[nH]c3nc(-c4ccc(O)cc4)c(Br)cc23)CC1` [SB-732881], the “Tm shift (°C)” value turned out to be 5.2 °C.

The assay is the same for the next values; noted with them: read-out: Tm shift (°C).
With `O=Nc1c(-c2c(O)[nH]c3ccc(I)cc23)[nH]c2ccccc12` [5-Iodo-indirubin-3′-monoxime], the ΔTm at 12.5 µM was found to be 6.1 °C.
The same measure, in the same setting: next, `O=C1Nc2ccccc2/C1=C\c1cnc[nH]1` [(Z,E)-3-(imidazol-4-ylmethylene)indolin-2-one]: 6.7 °C; `O=C(Nc1c[nH]nc1-c1nc2ccc(CN3CCOCC3)cc2[nH]1)NC1CC1` [AT9283]: 5.7 °C; `CC(C)Oc1cc(Nc2nc(N[C@@H](C)c3ccc(F)cn3)ncc2Cl)n[nH]1` [AZ23]: 5.8 °C.
The same measure, in the same setting: next, `N#CCCc1ccc2c(c1)-c1[nH]c3ccc([N+](=O)[O-])cc3c1CC(=O)N2` [Alsterpaullone, 2-Cyanoethyl]: 7.9 °C.
On to `Nc1nc(Nc2ccc(S(N)(=O)=O)cc2)nn1C(=S)Nc1c(F)cccc1F` [Cdk1/2 Inhibitor III], for which the ΔTm at 12.5 µM stood at 9.6 °C.
On to `Cc1nc(N)sc1-c1ccnc(Nc2cccc([N+](=O)[O-])c2)n1` [Cdk2/9 Inhibitor], for which the ΔTm at 12.5 µM was determined as 7.2 °C.
Same read-out and setting: then `O=C(O[C@H]1CN[C@H](C#Cc2cc3ncnc(Nc4ccc(Cc5ccccc5)cc4)c3s2)C1)N1CCOCC1` [GSK238583A], with 5.8 °C.
The same measure, in the same setting: next, `NS(=O)(=O)c1ccc(NN=C2C(=O)Nc3ccc(C(=O)NCc4ccncc4)cc32)cc1` [GW300657X]: 8.8 °C; `NS(=O)(=O)c1ccc(N/N=C2\C(=O)Nc3ccc(C(=O)NCCc4c[nH]cn4)cc32)cc1` [GW300660X]: 6.8 °C; `CC(C)(CO)CNC(=O)c1ccc2c(c1)/C(=N/Nc1ccc(S(N)(=O)=O)cc1)C(=O)N2` [GW301784X]: 6 °C.
On the same count and under the same terms, then `CC(C)COC(=O)c1ccc2c(c1)/C(=C/Nc1ccc(S(N)(=O)=O)cc1)C(=O)N2` [GW416981X], with 8.7 °C.
Turning to `CCN(CC)Cc1ccc(Nc2nccc(-c3cnn4ncccc34)n2)cc1` [GW780056X], the ΔTm at 12.5 µM is 4.8 °C.
On the same count and under the same terms, next, `O=Nc1c(-c2c(O)[nH]c3ccc(S(=O)(=O)O)cc23)[nH]c2ccccc12` [Indirubin-3′-monoxime-5-sulphonic acid]: 6.7 °C.
On the same count and under the same terms, then `CNC(=O)c1nn(C)c2c1C(C)(C)Cc1cnc(Nc3ccc(N4CCN(C)CC4)cc3)nc1-2` [Milciclib], with 6.2 °C; and `Cc1ccc([N+](=O)[O-])cc1S(=O)(=O)N(C)/N=C/c1cnc2ccc(Br)cn12` [PIK-75], with 4.7 °C.
Turning to `CNC(=O)c1cc(Oc2ccc(NC(=O)Nc3ccc(Cl)c(C(F)(F)F)c3)c(F)c2)ccn1` [Regorafenib], the ΔTm at 12.5 µM is 4.1 °C.
On the same count and under the same terms, then `CN1CCC(C(=O)Nc2n[nH]c3nc(-c4ccc(O)cc4)c(Br)cc23)CC1` [SB-732881-H], with 5.5 °C; and `CCN1CCC(CC(=O)Nc2n[nH]c3nc(-c4cccs4)c(Br)cc23)CC1` [SB-739245-AC], with 5.4 °C; and `COc1ccc2c(c1)/C(=C/c1cnc[nH]1)C(=O)N2` [SU9516], with 6 °C.
In the case of `CC(C)(C)c1nc(-c2cccc(NS(=O)(=O)c3c(F)cccc3F)c2F)c(-c2ccnc(N)n2)s1` [dabrafenib], the ΔTm at 12.5 µM turned out to be 10.4 °C.
On the same count and under the same terms, next, `O=C1Nc2ccccc2/C1=C1/Nc2ccccc2/C1=N\OCCC(O)CO` (stereo not drawn) [indirubin E804]: 7.6 °C; `CNC(=O)c1cc(Oc2ccc(NC(=O)Nc3cc(C(C)(C)C)nn3-c3ccc4ncccc4c3)c(F)c2)ccn1` [rebastinib]: 12.6 °C.

For another assay, the target named is T2, CDK16 (Homo sapiens, UniProt Q00536). Put plainly: co-crystal structure ([…] Å); also DSF ΔTm […] °C, kinase assay IC50 (E. coli CDK16 + cyclin Y/[…]-3-3), CETSA. Type of assay: biochemical. Details: PCTAIRE-tide substrate.
T2 sequence (Q00536 whole entry): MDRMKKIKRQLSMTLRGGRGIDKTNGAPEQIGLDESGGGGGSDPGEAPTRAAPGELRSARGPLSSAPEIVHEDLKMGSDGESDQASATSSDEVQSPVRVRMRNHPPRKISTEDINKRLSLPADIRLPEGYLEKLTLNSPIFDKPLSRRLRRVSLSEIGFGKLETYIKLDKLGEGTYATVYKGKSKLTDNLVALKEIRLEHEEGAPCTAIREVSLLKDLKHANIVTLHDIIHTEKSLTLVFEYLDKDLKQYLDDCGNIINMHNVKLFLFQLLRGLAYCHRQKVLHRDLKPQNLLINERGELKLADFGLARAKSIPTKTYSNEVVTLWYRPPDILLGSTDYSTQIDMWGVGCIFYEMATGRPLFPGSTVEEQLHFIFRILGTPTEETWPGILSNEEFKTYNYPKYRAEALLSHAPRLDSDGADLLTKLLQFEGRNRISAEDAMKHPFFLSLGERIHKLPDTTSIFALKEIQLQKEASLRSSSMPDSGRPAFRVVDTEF
T2 sequence (Q8ND76 2-341 partner): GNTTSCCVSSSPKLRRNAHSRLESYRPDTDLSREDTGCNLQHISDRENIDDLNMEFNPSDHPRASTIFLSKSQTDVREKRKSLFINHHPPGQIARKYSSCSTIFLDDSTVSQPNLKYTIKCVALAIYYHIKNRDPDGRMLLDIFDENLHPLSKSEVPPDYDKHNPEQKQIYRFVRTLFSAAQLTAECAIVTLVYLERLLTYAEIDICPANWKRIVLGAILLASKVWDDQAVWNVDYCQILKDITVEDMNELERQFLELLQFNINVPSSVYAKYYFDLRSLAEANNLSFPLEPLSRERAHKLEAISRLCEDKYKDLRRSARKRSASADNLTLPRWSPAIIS
Conditions: not given
On to `CNC(=O)c1cc(Oc2ccc(NC(=O)Nc3cc(C(C)(C)C)nn3-c3ccc4ncccc4c3)c(F)c2)ccn1` [rebastinib], for which the IC50 worked out at 32 nM.

The next assay concerns the target T2, CDK16. Put plainly: co-crystal structure ([…] Å); also DSF ΔTm […] °C, kinase assay IC50 (E. coli CDK16 + cyclin Y/[…]-3-3). Format: biochemical. Also on record: PCTAIRE-tide substrate.
Conditions: not given
Consider `O=C1Nc2ccccc2/C1=C1/Nc2ccccc2/C1=N\OCCC(O)CO` (stereo not drawn) [indirubin E804], for which the IC50 stood at 83 nM.

The target of another assay is T2, CDK16. Put plainly: […] kinase assay with PCTAIRE-tide; also DSF ΔTm […] °C.
Conditions: not given
Format: biochemical. Details: E. coli-purified human CDK16 (kinase assay); 163–478 S319D in DSF; with cyclin Y (with endogenous 14-3-3).
`CC(C)(C)c1nc(-c2cccc(NS(=O)(=O)c3c(F)cccc3F)c2F)c(-c2ccnc(N)n2)s1` [dabrafenib] had a 50% inhibitory concentration (IC50) of 35 nM.
